Patent publication US20150258059A1, “ANTIMICROBIAL AND RADIOPROTECTIVE COMPOUNDS” (BioDiem, Ltd, priority 2001, published 2015)
Converted amounts (≈) assume the structure as drawn. Where two headings read alike, the source gives them in different places.

Columns and labels:
Acinetobacter B-681 = assay: Sensitivity of strains: suppression of growth; assay type: cell-based; conditions: Compound (1) 1.0%; antibiotics disc method
[1] = system: Enterobacter aerogenes B-687; assay: Sensitivity of strains: suppression of growth; assay type: cell-based; conditions: Compound (1) 1.0%; antibiotics disc method
[2] = system: Enterobacter aerogenes B-679; assay: Sensitivity of strains: suppression of growth; assay type: cell-based; conditions: Compound (1) 1.0%; antibiotics disc method
[3] = system: Staphylococcus aureus M-209; assay: Sensitivity of strains: suppression of growth; assay type: cell-based; conditions: Compound (1) 1.0%; antibiotics disc method
[4] = system: Staphylococci epidermidis D-513; assay: Sensitivity of strains: suppression of growth; assay type: cell-based; conditions: Compound (1) 1.0%; antibiotics disc method
Acinetobacter B-677 = assay: Sensitivity of strains: suppression of growth; assay type: cell-based; conditions: Compound (1) 1.0%; antibiotics disc method
[5] = system: Neisseria meningitidis M-6231; assay: Sensitivity of strains: suppression of growth; assay type: cell-based; conditions: Compound (1) 1.0%; antibiotics disc method
[6] = system: γ-hemolytic streptococcus B-672; assay: Sensitivity of strains: suppression of growth; assay type: cell-based; conditions: Compound (1) 1.0%; antibiotics disc method
[7] = system: Klebsiella pneumoniae M-A21; assay: Sensitivity of strains: suppression of growth; assay type: cell-based; conditions: Compound (1) 1.0%; antibiotics disc method
[8] = system: Staphylococcus aureus B-685; assay: Sensitivity of strains: suppression of growth; assay type: cell-based; conditions: Compound (1) 1.0%; antibiotics disc method
[9] = system: Conditional pathogenic enterobacteria gram-negative aerobic bacilli; assay type: cell-based; further: key: + sensitive strains; + moderately sensitive strains; − stable strains
Escherichia coli M-17 = assay: Sensitivity of strains: suppression of growth; assay type: cell-based; conditions: Compound (1) 1.0%; antibiotics disc method
[10] = system: Pseudomonas aeruginosa B-601; assay: Sensitivity of strains: suppression of growth; assay type: cell-based; conditions: Compound (1) 1.0%; antibiotics disc method
[11] = system: Staphylococcus aureus B-674; assay: Sensitivity of strains: suppression of growth; assay type: cell-based; conditions: Compound (1) 1.0%; antibiotics disc method
Alkaligenes sp. B-667 = assay: Sensitivity of strains: suppression of growth; assay type: cell-based; conditions: Compound (1) 1.0%; antibiotics disc method
[12] = system: Klebsiella pneumoniae M-248; assay: Sensitivity of strains: suppression of growth; assay type: cell-based; conditions: Compound (1) 1.0%; antibiotics disc method
[13] = system: Neisseria meningitidis M-A72; assay: Sensitivity of strains: suppression of growth; assay type: cell-based; conditions: Compound (1) 1.0%; antibiotics disc method
[14] = system: Yersinia pseudotuberculosis; assay type: cell-based; conditions: Compound (1) 1.0%; antibiotics disc method
[15] = system: Citrobacter diversus B-678; assay: Sensitivity of strains: suppression of growth; assay type: cell-based; conditions: Compound (1) 1.0%; antibiotics disc method
Mycobact tub. H.37RV = assay: Anti-TB effect, serial double dilution in liquid medium; assay type: cell-based, M tuberculosis; conditions: 10-14 days incubation at 37° C.; read-out: Minimal Inhibitory Concentration
Escherichia coli B-65 = assay: Sensitivity of strains: suppression of growth; assay type: cell-based; conditions: Compound (1) 1.0%; antibiotics disc method
Acinetobacter B-676 = assay: Sensitivity of strains: suppression of growth; assay type: cell-based; conditions: Compound (1) 1.0%; antibiotics disc method
Alkaligenes sp. B-689 = assay: Sensitivity of strains: suppression of growth; assay type: cell-based; conditions: Compound (1) 1.0%; antibiotics disc method
[16] = system: Corynebacterium diphtheriae B-670; assay: Sensitivity of strains: suppression of growth; assay type: cell-based; conditions: Compound (1) 1.0%; antibiotics disc method
Escherichia coli B-683 = assay: Sensitivity of strains: suppression of growth; assay type: cell-based; conditions: Compound (1) 1.0%; antibiotics disc method
[17] = system: β-hemolytic streptococcus B-624; assay: Sensitivity of strains: suppression of growth; assay type: cell-based; conditions: Compound (1) 1.0%; antibiotics disc method
[18] = system: Staphylococcus aureus M-12159; assay: Sensitivity of strains: suppression of growth; assay type: cell-based; conditions: Compound (1) 1.0%; antibiotics disc method
[19] = system: Salmonella paratyphi M-16469; assay: Sensitivity of strains: suppression of growth; assay type: cell-based; conditions: Compound (1) 1.0%; antibiotics disc method
[20] = system: Staphylococcus epidermidis BK-30; assay: Sensitivity of strains: suppression of growth; assay type: cell-based; conditions: Compound (1) 1.0%; antibiotics disc method
[21] = in vivo; cited from earlier work
[22] = system: Enterococcus faecalis ATCC 29212; assay: NCCLS broth microdilution MIC/MBC; assay type: cell-based; conditions: for MIC: Enterococcus faecalis, ATCC29212
[23] = system: Staphylococcus aureus ATCC 29213; assay: NCCLS broth microdilution MIC/MBC; assay type: cell-based; conditions: for MIC: Staphylococcus aureus, ATCC29213, read-out: MIC
[24] = system: Escherichia coli ATCC 25922; assay: NCCLS broth microdilution MIC/MBC; assay type: cell-based; conditions: for MIC: Escherichia coli, ATCC25922, read-out: MIC
S. aureus = assay: Antibacterial activity in the presence of blood, macrodilution; assay type: cell-based
Haemophilus influenzae = assay: NCCLS broth microdilution MIC/MBC; assay type: cell-based; conditions: Table 9, 35° C., 24 hours
[25] = system: Pseudomonas aeruginosa ATCC 27853; assay: NCCLS broth microdilution MIC/MBC; assay type: cell-based; conditions: for MIC: Pseudomonas aeruginosa, ATCC27853, read-out: MIC
Candida albicans = assay: NCCLS broth macro-dilution MIC/MFC (RPMI); assay type: cell-based; conditions: Table 10, 4 day, 30° C.
C. glabrate RMIT 157 = assay: M38-P microdilution MIC/MFC; assay type: cell-based; conditions: Table 16, 24 h, 35° C.
[26] = system: C. guillermondii RMIT 176; assay: M38-P microdilution MIC/MFC; assay type: cell-based; conditions: Table 16, 24 h, 35° C.
C. krusei RMIT 177 = assay: M38-P microdilution MIC/MFC; assay type: cell-based; conditions: 35° C.
Fusarium graminearum = assay: microbe, parasite or virus in culture; assay type: cell-based
Microsporum gypseum = assay: NCCLS broth macro-dilution MIC/MFC (RPMI); assay type: cell-based; conditions: Table 10, 7 day, 30° C.
Rhodotorula rubra = assay: NCCLS broth macro-dilution MIC/MFC (RPMI); assay type: cell-based; conditions: Table 10, 4 day, 30° C.
Cryptococcus neoformans = assay: M38-P microdilution MIC/MFC; assay type: cell-based; conditions: Cryptococcus neoformans, Table 16, 24 h, 35° C., read-out: MIC
C. parapsilosis RMIT 178 = assay: M38-P microdilution MIC/MFC; assay type: cell-based; conditions: 35° C.
C. tropicalis RMIT 181 = assay: M38-P microdilution MIC/MFC; assay type: cell-based; conditions: 35° C.
Trichophyton rubrum = assay: NCCLS broth macro-dilution MIC/MFC (RPMI); assay type: cell-based; conditions: Table 10, 7 day, 30° C.
Epidermophyton floccosum = assay: NCCLS broth macro-dilution MIC/MFC (RPMI); assay type: cell-based; conditions: Table 10, 7 day, 30° C.

## CO[C@H]1/C=C/O[C@@]2(C)Oc3c(C)c(O)c4c(O)c(c(/C=N/N5CCN(C)CC5)c(O)c4c3C2=O)NC(=O)/C(C)=C\C=C\[C@H](C)[C@H](O)[C@@H](C)[C@@H](O)[C@@H](C)[C@H](OC(C)=O)[C@@H]1C [Antibiotic 10, rifampicin]
Acinetobacter B-681
  Suppression of Growth (+/−): +
[1]
  Suppression of Growth (+/−): −
[2]
  Suppression of Growth (+/−): −
[3]
  Suppression of Growth (+/−): +
[4]
  Suppression of Growth (+/−): +
Acinetobacter B-677
  Suppression of Growth (+/−): +
[5]
  Suppression of Growth (+/−): −
[6]
  Suppression of Growth (+/−): −
[7]
  Suppression of Growth (+/−): −
[8]
  Suppression of Growth (+/−): +
[9]
  Suppression of Growth (+/−): −
Escherichia coli M-17
  Suppression of Growth (+/−): −
[10]
  Suppression of Growth (+/−): −
[11]
  Suppression of Growth (+/−): −
Alkaligenes sp. B-667
  Suppression of Growth (+/−): +
[12]
  Suppression of Growth (+/−): −
[13]
  Suppression of Growth (+/−): −
[14]
  Suppression of Growth (+/−): −
[15]
  Suppression of Growth (+/−): −
Mycobact tub. H.37RV
  MIC: 0.01 to 0.02 µg/mL (≈ 0.0122 to 0.0243 µM)
Escherichia coli B-65
  Suppression of Growth (+/−): −
Acinetobacter B-676
  Suppression of Growth (+/−): +
Alkaligenes sp. B-689
  Suppression of Growth (+/−): −
[16]
  Suppression of Growth (+/−): +
Escherichia coli B-683
  Suppression of Growth (+/−): −
[17]
  Suppression of Growth (+/−): +
[18]
  Suppression of Growth (+/−): +
[19]
  Suppression of Growth (+/−): −
[20]
  Suppression of Growth (+/−): +

## NCCSSCCN [cystamine]
[21]
  index of protection: ≤ 1.45
  side effect: causes diarrhea

## [H]/N=C(/N)N[C@H]1[C@H](O)[C@@H](O)[C@H](O[C@@H]2O[C@@H](C)[C@](O)(C=O)[C@H]2O[C@@H]2O[C@@H](CO)[C@H](O)[C@@H](O)[C@@H]2NC)[C@@H](N/C(N)=N\[H])[C@@H]1O [Antibiotic 12, streptomycin]
Acinetobacter B-681
  Suppression of Growth (+/−): −
[1]
  Suppression of Growth (+/−): −
[2]
  Suppression of Growth (+/−): −
[3]
  Suppression of Growth (+/−): +
[4]
  Suppression of Growth (+/−): −
Acinetobacter B-677
  Suppression of Growth (+/−): −
[5]
  Suppression of Growth (+/−): −
[6]
  Suppression of Growth (+/−): −
[7]
  Suppression of Growth (+/−): −
[8]
  Suppression of Growth (+/−): +
[9]
  Suppression of Growth (+/−): −
Alkaligenes sp. B-667
  Suppression of Growth (+/−): −
[12]
  Suppression of Growth (+/−): −
[13]
  Suppression of Growth (+/−): −
[14]
  Suppression of Growth (+/−): −
Mycobact tub. H.37RV
  MIC: 0.5 µg/mL (≈ 0.86 µM)
Acinetobacter B-676
  Suppression of Growth (+/−): −
[16]
  Suppression of Growth (+/−): −
[17]
  Suppression of Growth (+/−): −
[18]
  Suppression of Growth (+/−): +
[20]
  Suppression of Growth (+/−): −

## O=C(O)c1cn(C2CC2)c2cc(N3CCNCC3)c(F)cc2c1=O [Ciprofloxacin]
[22]; Table 9, 35° C., 24 hours
  MIC: 0.5 µg/mL (≈ 1.51 µM)
  MMC: 0.5 µg/mL
[22]; Table 17, 2 or 3 replicates
  MIC: 0.5 µg/mL (≈ 1.51 µM)
  MMC: 0.5 µg/mL
[23]; Table 9, 35° C., 24 hours
  MIC: 0.25 µg/mL (≈ 0.754 µM)
  MMC: 0.25 µg/mL
[23]; Table 17, 2 or 3 replicates
  MIC: 0.25 µg/mL (≈ 0.754 µM)
  MMC: 0.25 µg/mL
[24]; Table 9, 35° C., 24 hours
  MIC: 0.02 µg/mL (≈ 0.0604 µM)
  MMC: 0.02 µg/mL
[24]; Table 17, 2 or 3 replicates
  MIC: 0.02 µg/mL (≈ 0.0604 µM)
  MMC: 0.02 µg/mL
S. aureus; in the presence of 10% plasma
  decrease in activity: 4 fold
S. aureus; in the presence of whole blood
  decrease in activity: 2 fold
Haemophilus influenzae; Haemophilus influenzae, read-out: MIC
  MIC: 6 ng/mL (≈ 0.0181 µM)
Haemophilus influenzae
  MMC: 0.006 µg/mL
[25]; Table 9, 35° C., 24 hours
  MIC: 0.25 µg/mL (≈ 0.754 µM)
  MMC: 0.25 µg/mL
[25]; Table 17, 2 or 3 replicates
  MIC: 0.25 µg/mL (≈ 0.754 µM)
  MMC: 0.25 µg/mL

## NCCS [mercamine, β-mercaptoethylamine]
[21]
  duration of radiation protecting activity: 15 to 30 min
  period of action: 0.5 to 1 h

## Clc1ccc(COC(Cn2ccnc2)c2ccc(Cl)cc2Cl)c(Cl)c1 (stereo not shown) [Miconazole]
Candida albicans; Candida albicans, 96 h
  MIC: 4 µg/mL (≈ 9.61 µM)
Candida albicans
  MMC: 8 µg/mL
C. glabrate RMIT 157
  MMC: 0.5 µg/mL
C. glabrate RMIT 157; read-out: MIC
  MIC: 0.25 µg/mL (≈ 0.601 µM)
[26]
  MMC: 1 µg/mL
[26]; read-out: MIC
  MIC: 1 µg/mL (≈ 2.4 µM)
C. krusei RMIT 177; Pichia kudriavzevii, RMIT177, Table 16, 24 h, read-out: MIC
  MIC: 2 µg/mL (≈ 4.81 µM)
C. krusei RMIT 177; Table 16, 24 h
  MMC: 2 µg/mL
Fusarium graminearum; Fusarium graminearum, 168 h
  MIC: 32 µg/mL (≈ 76.9 µM)
Fusarium graminearum; Table 10, 7 day, 30° C.
  MMC: 32 µg/mL
Microsporum gypseum; Nannizzia gypsea, 168 h
  MIC: 4 µg/mL (≈ 9.61 µM)
Microsporum gypseum
  MMC: 64 µg/mL
Rhodotorula rubra; Rhodotorula, 96 h
  MIC: 8 µg/mL (≈ 19.2 µM)
Rhodotorula rubra
  MMC: 32 µg/mL
Cryptococcus neoformans
  MIC: 4 µg/mL (≈ 9.61 µM)
C. parapsilosis RMIT 178; Lodderomyces parapsilosis, RMIT178, Table 16, 24 h, read-out: MIC
  MIC: 0.5 µg/mL (≈ 1.2 µM)
C. parapsilosis RMIT 178; Table 16, 24 h
  MMC: 0.5 µg/mL
C. tropicalis RMIT 181; Candida tropicalis, RMIT181, Table 16, 24 h, read-out: MIC
  MIC: 1 µg/mL (≈ 2.4 µM)
C. tropicalis RMIT 181; Table 16, 24 h
  MMC: 2 µg/mL
Trichophyton rubrum
  MMC: 64 µg/mL
Trichophyton rubrum; Trichophyton rubrum, 168 h
  MIC: 1 µg/mL (≈ 2.4 µM)
Epidermophyton floccosum; Epidermophyton floccosum, 168 h
  MIC: 0.25 µg/mL (≈ 0.601 µM)
Epidermophyton floccosum
  MMC: 0.25 µg/mL
